ChEMBL document CHEMBL4033619, “Autophagy antagonizes apoptosis induced by flavan enantiomers from Daphne giraldii in hepatic carcinoma cells in vitro” (Eur J Med Chem, 2017)
Calls of active or inactive are those of the source. The rule behind the calls is not given here.

Experiments:
MCF7 [1] = assay: Cytotoxicity against human MCF7 cells by MTT assay; assay type: functional, cell-based
HepG2 [2] = assay: Cytotoxicity against human HepG2 cells by MTT assay; assay type: functional, cell-based
Hep 3B2 [3] = assay: Cytotoxicity against human Hep3B cells by MTT assay; assay type: functional, cell-based
A549 [4] = assay: Cytotoxicity against human A549 cells by MTT assay; assay type: functional, cell-based
MCF7 [5] = assay: Growth inhibition of human MCF7 cells after 48 hrs by MTT assay; assay type: functional, cell-based
A549 [6] = assay: Growth inhibition of human A549 cells after 48 hrs by MTT assay; assay type: functional, cell-based
HepG2 [7] = assay: Growth inhibition of human HepG2 cells after 48 hrs by MTT assay; assay type: functional, cell-based
Hep 3B2 [8] = assay: Growth inhibition of human Hep3B cells after 48 hrs by MTT assay; assay type: functional, cell-based
Hep 3B2 [9] = assay: Induction of apoptosis in human Hep3B cells assessed as cell shrinkage at 30 uM after 48 hrs by phase contrast microscopic analysis; assay type: functional, cell-based
Hep 3B2 [10] = assay: Induction of apoptosis in human Hep3B cells assessed as membrane blebbing at 30 uM after 48 hrs by phase contrast microscopic analysis; assay type: functional, cell-based
Hep 3B2 [11] = assay: Induction of apoptosis in human Hep3B cells assessed as chromatin condensation at 30 uM after 48 hrs by Hoechst 33258 staining-based fluorescence microscopy; assay type: functional, cell-based
Hep 3B2 [12] = assay: Induction of apoptosis in human Hep3B cells assessed as nuclear fragmentaion at 30 uM after 48 hrs by Hoechst 33258 staining-based fluorescence microscopy; assay type: functional, cell-based
Hep 3B2 [13] = assay: Induction of apoptosis in human Hep3B cells assessed as increase in FADD level by Western blot analysis; assay type: functional, cell-based
Hep 3B2 [14] = assay: Induction of apoptosis in human Hep3B cells assessed as increase in caspase 8 level by Western blot analysis; assay type: functional, cell-based
Hep 3B2 [15] = assay: Induction of apoptosis in human Hep3B cells assessed as increase in Bax level by Western blot analysis; assay type: functional, cell-based
Hep 3B2 [16] = assay: Induction of apoptosis in human Hep3B cells assessed as increase in caspase 9 level by Western blot analysis; assay type: functional, cell-based
Hep 3B2 [17] = assay: Induction of apoptosis in human Hep3B cells assessed as increase in caspase 7 level by Western blot analysis; assay type: functional, cell-based
Hep 3B2 [18] = assay: Induction of apoptosis in human Hep3B cells assessed as decrease in PARP level at 15 to 60 uM by Western blot analysis; assay type: functional, cell-based
Hep 3B2 [19] = assay: Induction of apoptosis in human Hep3B cells assessed as effect on cleaved PARP level at 15 to 60 uM by Western blot analysis; assay type: functional, cell-based
Hep 3B2 [20] = assay: Induction of autophagy in human Hep3B cells at 30 uM after 48 hrs by MDC staining-based fluorescence microscopic method; assay type: functional, cell-based
Hep 3B2 [21] = assay: Induction of autophagy in human Hep3B cells assessed as increase in conversion of LC3-1 to LC3-2 at 10 to 60 uM by Western blot analysis; assay type: functional, cell-based
Hep 3B2 [22] = assay: Induction of autophagy in human Hep3B cells assessed as decrease in p62 level at 15 to 60 uM by Western blot analysis; assay type: functional, cell-based
Hep 3B2 [23] = assay: Cytotoxicity against human Hep3B cells assessed as reduction in cell growth at 30 uM in presence of autophagy inhibitor bafilomycin A1 by MTT assay; assay type: functional, cell-based
Hep 3B2 [24] = assay: Induction of apoptosis in human Hep3B cells assessed as increase in FADD level at 30 uM in presence of autophagy inhibitor bafilomycin A1 by Western blot analysis; assay type: functional, cell-based
Hep 3B2 [25] = assay: Induction of apoptosis in human Hep3B cells assessed as increase in caspase 8 level at 30 uM in presence of autophagy inhibitor bafilomycin A1 by Western blot analysis; assay type: functional, cell-based
Hep 3B2 [26] = assay: Induction of apoptosis in human Hep3B cells assessed as increase in Bax level at 30 uM in presence of autophagy inhibitor bafilomycin A1 by Western blot analysis; assay type: functional, cell-based
Hep 3B2 [27] = assay: Induction of apoptosis in human Hep3B cells assessed as increase in caspase 9 level at 30 uM in presence of autophagy inhibitor bafilomycin A1 by Western blot analysis; assay type: functional, cell-based
Hep 3B2 [28] = assay: Induction of apoptosis in human Hep3B cells assessed as increase in caspase 7 level at 30 uM in presence of autophagy inhibitor bafilomycin A1 by Western blot analysis; assay type: functional, cell-based
Hep 3B2 [29] = assay: Induction of apoptosis in human Hep3B cells assessed as increase in cleaved PARP level at 30 uM in presence of autophagy inhibitor bafilomycin A1 by Western blot analysis; assay type: functional, cell-based
Hep 3B2 [30] = assay: Induction of apoptosis in human Hep3B cells assessed as decrease in PARP level at 30 uM in presence of autophagy inhibitor bafilomycin A1 by Western blot analysis; assay type: functional, cell-based
Hep 3B2 [31] = assay: Induction of apoptosis in human Hep3B cells assessed as chromatin condensation at 30 uM in presence of autophagy inhibitor bafilomycin A1 by Hoechst 33258 staining-based fluorescence microscopy; assay type: functional, cell-based
Hep 3B2 [32] = assay: Induction of apoptosis in human Hep3B cells assessed as nuclear fragmentation at 30 uM in presence of autophagy inhibitor bafilomycin A1 by Hoechst 33258 staining-based fluorescence microscopy; assay type: functional, cell-based
Hep 3B2 [33] = assay: Effect on AMPK expression in human Hep3B cells at 15 to 60 uM by Western blot analysis; assay type: functional, cell-based
[34] = target: T1, AMP-activated protein kinase, AMPK (Homo sapiens) (UniProt P54646+O43741+P54619+Q9UGJ0+Q9Y478+Q13131+Q9UGI9); assay: Increase in AMPK phosphorylation at Thr172 in human Hep3B cells at 15 to 60 uM by Western blot analysis; assay type: cell-based
Hep 3B2 [35] = assay: Down regulation of AMPK expression in human Hep3B cells at 30 uM in presence of autophagy inhibitor bafilomycin A1 by Western blot analysis; assay type: functional, cell-based
[36] = target: T1, AMP-activated protein kinase, AMPK (Homo sapiens); assay: Increase in AMPK phosphorylation at Thr172 in human Hep3B cells at 30 uM in presence of autophagy inhibitor bafilomycin A1 by Western blot analysis; assay type: cell-based

SMILES: O=c1[nH]cc(F)c(=O)[nH]1 [FLUOROURACIL]
- IC50 (MCF7 [1]): 30 µM
- IC50 (HepG2 [2]): 32.6 µM
- IC50 (Hep 3B2 [3]): 11.9 µM

SMILES: CC(C)=CCc1c([C@H]2CCc3ccc(O)cc3O2)ccc(O)c1O [KAZINOL U]
- IC50 (MCF7 [1]): > 100 µM
- IC50 (A549 [4]): > 100 µM
- IC50 (HepG2 [2]): > 100 µM
- IC50 (Hep 3B2 [3]): 51.1 µM
- growth inhibition (GI) (MCF7 [5]): Dose-dependent effect
- growth inhibition (GI) (A549 [6]): Dose-dependent effect
- growth inhibition (GI) (HepG2 [7]): Dose-dependent effect
- growth inhibition (GI) (Hep 3B2 [8]): Dose-dependent effect

SMILES: CC1(C)C=Cc2c(C3CCc4ccc(O)cc4O3)ccc(O)c2O1 (racemic)
- IC50 (MCF7 [1]): > 100 µM
- IC50 (A549 [4]): > 100 µM
- IC50 (HepG2 [2]): 92.8 µM
- IC50 (Hep 3B2 [3]): 57.4 µM
- growth inhibition (GI) (MCF7 [5]): Dose-dependent effect
- growth inhibition (GI) (A549 [6]): Dose-dependent effect
- growth inhibition (GI) (HepG2 [7]): Dose-dependent effect
- growth inhibition (GI) (Hep 3B2 [8]): Dose-dependent effect

SMILES: CC(C)=CCc1c([C@H]2CCc3ccc(O)cc3O2)cc2c(c1O)OC(C)(C)C=C2
- IC50 (MCF7 [1]): > 100 µM
- IC50 (A549 [4]): > 100 µM
- IC50 (HepG2 [2]): 64.2 µM
- IC50 (Hep 3B2 [3]): 30.3 µM
- growth inhibition (GI) (MCF7 [5]): Dose-dependent effect
- Activity (Hep 3B2 [9]): Active
- Activity (Hep 3B2 [10]): Active
- Activity (Hep 3B2 [11]): Active
- Activity (Hep 3B2 [12]): Active
- Activity (Hep 3B2 [13]): Dose-dependent effect
- Activity (Hep 3B2 [14]): Dose-dependent effect
- Activity (Hep 3B2 [15]): Dose-dependent effect
- Activity (Hep 3B2 [16]): Dose-dependent effect
- Activity (Hep 3B2 [17]): Dose-dependent effect
- Activity (Hep 3B2 [18]): Active
- Activity (Hep 3B2 [19]): Active
- Activity (Hep 3B2 [20]): Active
- Activity (Hep 3B2 [21]): Active
- Activity (Hep 3B2 [22]): Active
- Activity (Hep 3B2 [23]): Active
- Activity (Hep 3B2 [24]): Active
- Activity (Hep 3B2 [25]): Active
- Activity (Hep 3B2 [26]): Active
- Activity (Hep 3B2 [27]): Active
- Activity (Hep 3B2 [28]): Active
- Activity (Hep 3B2 [29]): Active
- Activity (Hep 3B2 [30]): Active
- Activity (Hep 3B2 [31]): Active
- Activity (Hep 3B2 [32]): Active
- Activity (Hep 3B2 [33]): inactive
- Activity [34]: Active
- Activity (Hep 3B2 [35]): Active
- growth inhibition (GI) (A549 [6]): Dose-dependent effect
- growth inhibition (GI) (HepG2 [7]): Dose-dependent effect
- growth inhibition (GI) (Hep 3B2 [8]): Dose-dependent effect
- Activity [36]: Active

SMILES: CC(C)=CCc1c([C@@H]2CCc3ccc(O)cc3O2)cc2c(c1O)OC(C)(C)C=C2 [KAZINOL B]
- IC50 (MCF7 [1]): > 100 µM
- IC50 (A549 [4]): > 100 µM
- IC50 (HepG2 [2]): 58.4 µM
- IC50 (Hep 3B2 [3]): 39 µM
- growth inhibition (GI) (MCF7 [5]): Dose-dependent effect
- growth inhibition (GI) (A549 [6]): Dose-dependent effect
- growth inhibition (GI) (HepG2 [7]): Dose-dependent effect
- growth inhibition (GI) (Hep 3B2 [8]): Dose-dependent effect

SMILES: CC(C)=CCc1c([C@@H]2CCc3ccc(O)cc3O2)ccc(O)c1O
- IC50 (MCF7 [1]): > 100 µM
- IC50 (A549 [4]): > 100 µM
- IC50 (HepG2 [2]): > 100 µM
- IC50 (Hep 3B2 [3]): 62.2 µM
- growth inhibition (GI) (MCF7 [5]): Dose-dependent effect
- growth inhibition (GI) (A549 [6]): Dose-dependent effect
- growth inhibition (GI) (HepG2 [7]): Dose-dependent effect
- growth inhibition (GI) (Hep 3B2 [8]): Dose-dependent effect

SMILES: CC(C)=CCc1c(C2CCc3ccc(O)cc3O2)ccc(O)c1O (racemic)
- IC50 (MCF7 [1]): > 100 µM
- IC50 (A549 [4]): > 100 µM
- IC50 (HepG2 [2]): > 100 µM
- IC50 (Hep 3B2 [3]): 81.2 µM
- growth inhibition (GI) (MCF7 [5]): Dose-dependent effect
- growth inhibition (GI) (A549 [6]): Dose-dependent effect
- growth inhibition (GI) (HepG2 [7]): Dose-dependent effect
- growth inhibition (GI) (Hep 3B2 [8]): Dose-dependent effect
